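Test compounds were applied to cells in 96-well plates for 48 hours at 5 doses. Abbreviation: GI50, concentration required for 50% inhibition of growth. TGI is the concentration that stops growth completely.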 *1 amine or outer side, *2 acyl side, *3 side chain or, on linkers, in order; H or OH if unused. Where a SMILES comes first, the peptide text is derived from it. Bridges are numbered along the chain shown (N, C = ends). Roman numbers before positions name the chains, in order. [ ]: non-standard residue; d: D form. Actinocin(9to1) = Cc1c2oc3c(C)ccc(C(=O)[*:1])c3nc-2c(C(=O)[*:2])c(N)c1=O; NMeV = CN[CH](C(=O)O)C(C)C; Sar = CNCC(=O)O
Columns and labels:
Assay in all cases: NCI anticancer screen, dose series, 48 h
UACC-257 melanoma = system: UACC-257 melanoma
UO-31 renal = system: UO-31 renal
NCI-H522 lung = system: NCI-H522 lung
ACHN renal = system: ACHN renal
IGROV1 ovarian = system: IGROV1 ovarian
HCT-116 colon = system: HCT-116 colon
NCI-H23 lung = system: NCI-H23 lung
KM12 colon = system: KM12 colon
EKVX NSCLC = system: EKVX NSCLC
SK-OV-3 ovarian = system: SK-OV-3 ovarian

SMILES	TGI (UACC-257 melanoma)	TGI (UO-31 renal)	TGI (NCI-H522 lung)	TGI (ACHN renal)	TGI (IGROV1 ovarian)	TGI (HCT-116 colon)	TGI (NCI-H23 lung)	TGI (KM12 colon)	TGI (EKVX NSCLC)	TGI (SK-OV-3 ovarian)	GI50 (NCI-H522 lung)	GI50 (EKVX NSCLC)
CN1CCCC(OC(=O)c2cc3cc(CCl)ccc3oc2=O)C1 (configuration not stated)	40.2 µM	32.5 µM	34.7 µM	51.1 µM	> 100 µM	48.7 µM	45.1 µM	68.3 µM	91.5 µM	> 100 µM	–	–
CCOC(=O)NC(OCc1ccccc1)(C(=O)OC)C(F)(F)F (configuration not stated)	> 100 µM	> 100 µM	> 100 µM	> 100 µM	> 100 µM	> 100 µM	> 100 µM	> 100 µM	> 100 µM	> 100 µM	–	–
COC(=O)NC(Nc1ccc(C)cc1)(C(F)(F)F)C(F)(F)F	> 100 µM	> 100 µM	> 100 µM	> 100 µM	> 100 µM	> 100 µM	> 100 µM	> 100 µM	> 100 µM	> 100 µM	–	–
CCOC(=O)c1nc2ccccc2nc1Nc1ccc(F)cc1	> 100 µM	> 100 µM	> 100 µM	> 93.6 µM	44.8 µM	> 69.3 µM	69.1 µM	> 100 µM	> 68.7 µM	37.7 µM	–	–
Cc1ccc(C(=O)NN=C(/N=N/c2cccc(C)c2)c2ccc(N(C)C)cc2)cc1	> 100 µM	> 100 µM	> 100 µM	> 100 µM	> 100 µM	> 100 µM	> 100 µM	> 100 µM	> 100 µM	> 100 µM	–	–
CCC(C)C(NC(=O)C1CCCN1)C(=O)NC(C(=O)NCC(=O)NC(CC(N)=O)C(=O)NC(CC(C)C)C(=O)NC(CC(C)C)C(=O)NC(CCCCN)C(N)=O)C(C)C (configuration not stated) (H-PIVGNLLK-NH2; configuration not given here)	> 75 µM	> 75 µM	> 75 µM	> 75 µM	> 75 µM	> 75 µM	> 75 µM	> 75 µM	> 75 µM	> 75 µM	–	–
C#Cc1cccc(Nc2ncnc3cc(OCCOC)c(OCCOC)cc23)c1	> 100 µM	74.5 µM	27.1 µM	32.2 µM	16.9 µM	> 100 µM	> 100 µM	> 100 µM	> 93.7 µM	5.2 µM	0.901 µM	0.301 µM
O=C1/C(=C(/Br)I)c2ccccc2-c2ccccc21	18.5 µM	6.2 µM	5.27 µM	19 µM	27.7 µM	25.2 µM	46.4 µM	32 µM	32.6 µM	29.8 µM	–	–
CC(=O)Nc1nc(C)c(S(=O)(=O)NC(=O)N2c3ccccc3CCc3ccccc32)s1	> 100 µM	> 100 µM	> 100 µM	> 100 µM	> 100 µM	> 100 µM	> 100 µM	> 100 µM	> 100 µM	> 100 µM	–	–
Cc1c(Cl)c(=O)oc2cc(OCC(O)COC(C)C)ccc12 (configuration not stated)	> 100 µM	> 100 µM	> 100 µM	> 100 µM	> 100 µM	> 100 µM	> 100 µM	> 100 µM	> 100 µM	> 100 µM	–	–
CCCCNC(=S)Nc1nc(C(=O)NNC(=S)NCc2ccccc2)cs1	83.9 µM	> 100 µM	> 100 µM	78.5 µM	> 100 µM	> 100 µM	> 100 µM	> 100 µM	> 100 µM	> 100 µM	–	–
C=C1CC(Cn2cc(Br)c(=O)[nH]c2=O)(c2ccc(Br)cc2)OC1=O (configuration not stated)	4.11 µM	27.1 µM	3.19 µM	9.4 µM	4.06 µM	2.75 µM	10.6 µM	> 38.7 µM	39.7 µM	24.6 µM	–	–
CCCCN(CCCC)C1=Nc2ccccc2-n2c(nnc2C(=O)OCC)C1	90 µM	> 100 µM	> 100 µM	> 100 µM	> 100 µM	> 100 µM	> 100 µM	> 100 µM	> 100 µM	> 100 µM	–	–
CCOC(=O)COC1=Nc2cc(OC)c(OC)c3nc(Cl)cc(c23)C1=O	3.21 µM	4.13 µM	3.25 µM	3.02 µM	5.97 µM	3.1 µM	5.3 µM	28.6 µM	1.83 µM	24.1 µM	–	–
O=C(O)Cn1ncn(NC(=O)Cc2ccccc2)c1=S	> 10 µM	> 10 µM	> 10 µM	> 10 µM	> 10 µM	> 10 µM	> 10 µM	> 10 µM	> 10 µM	> 10 µM	–	–
N#C[C@H]1C(=O)C(c2nc3ccccc3[nH]2)S[C@H]1c1ccccc1 (some centres not stated)	> 100 µM	78.8 µM	52.6 µM	57.6 µM	> 100 µM	> 100 µM	76.1 µM	> 100 µM	> 100 µM	> 100 µM	–	–

SMILES	TGI (UACC-257 melanoma)	TGI (UO-31 renal)	TGI (NCI-H522 lung)	TGI (ACHN renal)	TGI (IGROV1 ovarian)	TGI (HCT-116 colon)	TGI (NCI-H23 lung)	TGI (KM12 colon)	TGI (EKVX NSCLC)	TGI (SK-OV-3 ovarian)	GI50 (NCI-H522 lung)	GI50 (EKVX NSCLC)
COc1ccc(OC)c(-c2cn3c(n2)sc2ccccc23)c1	> 100 µM	> 100 µM	> 100 µM	> 100 µM	> 100 µM	> 100 µM	> 100 µM	> 100 µM	> 100 µM	> 100 µM	–	–
O=C1/C(=C/C=C/c2ccccc2)CCC1CNc1ccc(Br)cc1 (configuration not stated)	> 100 µM	> 100 µM	57 µM	> 100 µM	> 100 µM	> 100 µM	> 100 µM	> 100 µM	> 100 µM	> 100 µM	–	–
O=C1CCc2cc3c(cc21)C(C(=O)O)CC3 (configuration not stated)	> 100 µM	> 100 µM	> 100 µM	> 100 µM	> 100 µM	> 100 µM	> 100 µM	> 100 µM	> 100 µM	> 100 µM	–	–
Cn1c(O)c(/C=N/c2ncccn2)c(=O)[nH]c1=O	> 100 µM	> 100 µM	> 100 µM	> 100 µM	> 100 µM	> 100 µM	> 100 µM	> 100 µM	> 100 µM	> 100 µM	–	–
CCC(=O)Nc1ccc(N2C(=O)/C(=C/c3ccc(O)c(OC)c3)N=C2c2ccccc2)cc1	71.5 µM	> 100 µM	> 100 µM	89.9 µM	> 100 µM	> 100 µM	> 100 µM	> 100 µM	46.4 µM	> 100 µM	–	–
Oc1ccc(O)c(Sc2nnc(CCCCCCCCc3nnc(Sc4cc(O)ccc4O)o3)o2)c1	> 100 µM	32 µM	55 µM	85.9 µM	> 100 µM	32.5 µM	> 100 µM	> 100 µM	> 100 µM	> 100 µM	–	–
O=P1(N(CCCl)CCCl)NCCCO1 (configuration not stated)	> 250 µM	> 250 µM	> 250 µM	> 250 µM	> 239 µM	> 250 µM	> 250 µM	> 238 µM	> 250 µM	> 250 µM	–	–
Cn1c(=O)[nH]n(-c2ccc3ccccc3c2)c1=O	> 100 µM	> 100 µM	> 100 µM	> 100 µM	> 100 µM	> 100 µM	> 100 µM	> 100 µM	> 100 µM	> 100 µM	–	–
CCCCCCCCCCC[N+]1(Cc2ccccc2)CC2CCN(Cc3ccccc3)CC2C1 (configuration not stated)	1.14 µM	2.56 µM	1.29 µM	2.43 µM	1.78 µM	1.45 µM	1.03 µM	0.902 µM	1.37 µM	3.13 µM	–	–
S=c1oc(CCCCCCCCc2nn(CNc3ccc(Cl)cc3)c(=S)o2)nn1CNc1ccc(Cl)cc1	> 100 µM	> 100 µM	> 100 µM	> 100 µM	> 100 µM	> 100 µM	> 100 µM	> 100 µM	> 100 µM	> 100 µM	–	–
Cc1cn([C@@H]2C[C@](C)(CO)N(C)O2)c(=O)[nH]c1=O	> 100 µM	> 100 µM	> 100 µM	> 100 µM	> 100 µM	> 100 µM	> 100 µM	> 100 µM	> 100 µM	> 100 µM	–	–
Cc1ccc(S(=O)(=O)CC2CCCn3c2c(C#N)c2ccccc23)cc1 (configuration not stated)	> 100 µM	> 100 µM	> 100 µM	> 100 µM	> 100 µM	> 100 µM	> 100 µM	> 100 µM	> 100 µM	> 100 µM	–	–
Cc1c2oc3c(C)ccc(C(=O)NC4C(=O)NC(Cc5ccc(O)cc5)C(=O)N5CCCC5C(=O)N(C)CC(=O)N(C)C(C(C)C)C(=O)OC4C)c3nc-2c(C(=O)NC2C(=O)NC(Cc3ccc(O)cc3)C(=O)N3CCCC3C(=O)N(C)CC(=O)N(C)C(C(C)C)C(=O)OC2C)c(N)c1=O (configuration not stated) (I: TYP[Sar][NMeV] / II: TYP[Sar][NMeV]; ester I:1-I:C, II:1-II:C; linker I:N-II:N via Actinocin(9to1); configuration not given here)	> 100 µM	> 61.4 µM	45.8 µM	> 100 µM	32.6 µM	> 100 µM	> 79.2 µM	> 100 µM	> 100 µM	> 100 µM	–	–
CC(C)(C)C(=O)O[C@H]1C=C[C@@H](O)[C@@H]2[C@H]1[C@@H]1C=C[C@H]2C1	27.1 µM	> 100 µM	79.8 µM	> 100 µM	> 100 µM	> 100 µM	48 µM	12.4 µM	> 100 µM	> 100 µM	–	–
Cc1cn(C2CC(SCCO)C(CO)O2)c(=O)[nH]c1=O (configuration not stated)	> 100 µM	> 100 µM	> 100 µM	> 100 µM	> 100 µM	> 100 µM	> 100 µM	> 100 µM	> 100 µM	> 100 µM	–	–
Cc1cc2nc3c(N)nn(CCN(C)C)c3nc2cc1C	> 100 µM	> 100 µM	> 100 µM	95.5 µM	> 100 µM	> 100 µM	> 100 µM	> 100 µM	> 100 µM	> 100 µM	–	–
